The source of these data is publication PMC10895676, “Antiviral Activity of Lipophilic Nucleoside Tetraphosphate Compounds” (Journal of Medicinal Chemistry, 2024).

A short description of data set [1]: Chemical hydrolysis in aqueous buffers (PBS pH 7.3 / 8.0, citrate buffer pH 2.0), RP18-HPLC. The following applies: for half-life: 25 mM citrate buffer, pH 2.0, 37 °C; for half-life at 1.9 mM: phosphate buffered saline. The data set is classed as physicochemical. The procedure, abridged:
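Compound incubated at 37 °C in PBS pH 7.3 or 8.0, or citrate/NaCl/HCl buffer adjusted to pH 2.0 with NaOH. Aliquots sampled over time, stored at −30 °C, and hydrolysis products quantified by RP18-HPLC with UV detection.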

Data set [2] is described as follows: Hydrolysis in CEM/0 cell extracts. The following applies: human. The format is in vitro ADME. The procedure:
Next, TetraPPPPro-nucleotides 4–9 were incubated in human CD4^+ T-lymphocyte CEM/0 cell extracts to study their stability and identify the hydrolysis products.
CEM cells were grown in RPMI-1640-based cell culture medium to a final density of ∼3 × 10^6 cells/mL. Cells were centrifuged for 10 min at 1250 rpm at 4 °C and washed twice with cold PBS, and the pellet was resuspended at 10^8 cells/mL and sonicated (Hielscher Ultrasound Techn., 100% amplitude, 3·times for 10 s) to destroy cell integrity. Next, the resulting cell suspension was centrifuged at 10,000 rpm to remove cell debris. Finally, the supernatant was divided into aliquots and frozen at −80 °C.
6.0 mM hydrolysis solutions of compounds 4–9 were prepared from 21 μL of 50 mM DMSO stock solutions and 154 μL of DMSO. Two different samples, including 10 μL of water and 10 μL of 6.0 mM hydrolysis solution, were prepared in 2 mL Eppendorf vials. Next, 50 μL of human CEM cell extracts or 50 μL of human citrate plasma were added to the mixture, the reaction was started, and the mixture was incubated at 37 °C for different time periods. The reactions were stopped by the addition of 150 μL of MeOH. The resulting suspension was kept on ice for 5 min, followed by defrosting and centrifugation at 14,000 rpm (Heraeus, Biofuge Pico) for 22 min. The supernatants (80 or 60 μL) were directly injected into HPLC. The calculation of t1/2 was performed analogously to that for the chemical hydrolysis studies.

The next data set concerns HIV-2 (ROD). The data set is described as follows: Anti-HIV replication assay, HIV-2 (ROD) in thymidine kinase-deficient CEM/TK– cells. The data set is classed as cell-based. The following applies: for improvement of antiviral activity as compared to the parent d4T: HIV-2, CEM/TK– cells; for EC50: read-out: CEM/TK– HIV-2 (ROD) EC50; for selectivity index (SI): CC50/EC50, HIV-2 (ROD) in CEM/TK– cells. In short, it runs like this:
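Wild-type CEM/0 or thymidine kinase-deficient CEM/TK– T-cells (~3 × 10^5 cells/mL) were infected with 100 CCID50/mL HIV-2(ROD) in the presence of compound dilutions. After 4–5 days at 37 °C, virus-induced cytopathicity and syncytium formation were scored microscopically.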

Where [3] appears, read: 25 mM PBS, pH 7.3, 37 °C, read-out: PBS pH 7.3 t1/2 (converted).
The mark [4] stands for this setting: PBS, pH 8.0, 37 °C, read-out: PBS pH 8.0 t1/2 (converted).
The mark [5] stands for this setting: 37 °C, read-out: CEM/0 cell extracts t1/2 (converted).
Where [6] appears, read: Human immunodeficiency virus 2, CEM/TK– cells, mean ± SD, n = 2–3.

Like-named read-outs stand apart in the source and are kept apart here.

In the case of `CCCCCCCCCCCCCCCCCCP(=O)(OCCCC)OP(=O)(O)OP(=O)(O)OP(=O)(O)OC[C@@H]1C=C[C@H](n2cc(C)c(=O)[nH]c2=O)O1` (stereo partly shown) [5a, δ-(Alkyl-C4)-δ-C-(alkyl-C18)-d4T4P], in data set [1], the half-life was greater than 150 h. Also, the half-life at 1.9 mM in data set [1] (setting [3]) is greater than 1000 h; in data set [1] (setting [4]), greater than 200 h. The half-life at 0.86 mM in data set [2] (setting [5]) was greater than 20 h. In addition, the “improvement of antiviral activity as compared to the parent d4T” value in the data set on HIV-2 (ROD) was greater than 1100 fold. The EC50 with HIV-2 (ROD) (Human immunodeficiency virus 2, CEM-TK(-)) stood at 0.043 ± 0.026 µM.

On to `CCCCCCCCCCCCCCCCCCOP(=O)(OCCCC)OP(=O)(O)OP(=O)(O)OP(=O)(O)OC[C@@H]1C=C[C@H](n2cc(C)c(=O)[nH]c2=O)O1` (stereo partly shown) [4d, δ-(Alkyl-C4; alkyl-C18)-d4T4P], for which, in data set [1], the half-life is 66 h. The results for the half-life at 1.9 mM in data set [1] (setting [3]) and in data set [1] (setting [4]) were 251 h and greater than 100 h, respectively. Besides, the half-life at 0.86 mM in data set [2] (setting [5]) is greater than 20 h. Also, in the data set on HIV-2 (ROD), the “selectivity index (SI)” value is given as 260. Moreover, the “improvement of antiviral activity as compared to the parent d4T” value in the data set with HIV-2 (ROD) was greater than 270 fold. In the data set with HIV-2 (ROD) (setting [6]), the EC50 was determined as 0.18 ± 0.15 µM.

For `CCCCCCCCCCCCCCCCCCOP(=O)(O)OP(=O)(O)OP(=O)(O)OP(=O)(O)OC[C@@H]1C=C[C@H](n2cc(C)c(=O)[nH]c2=O)O1` [compound 20, δ-(Alkyl-C18)-d4T4P], the half-life at 1.9 mM in data set [1] (setting [3]) is 132 h. Further, the half-life at 0.86 mM in data set [2] (setting [5]) was greater than 8 h. For the same molecule, in the data set on HIV-2 (ROD), the “selectivity index (SI)” value is greater than 21. In addition, in the data set with HIV-2 (ROD) (setting [6]), the EC50 is 4.6 ± 0.33 µM.

With `CCCCCCCCCCCCCCCCCCP(=O)(O)OP(=O)(O)OP(=O)(O)OP(=O)(O)OC[C@@H]1C=C[C@H](n2cc(C)c(=O)[nH]c2=O)O1` [compound 24, δ-C-(Alkyl-C18)-d4T4P], the half-life at 1.9 mM in data set [1] (setting [3]) is greater than 1000 h. The half-life at 0.86 mM in data set [2] (setting [5]) was greater than 30 h. Besides, the “selectivity index (SI)” value in the data set with HIV-2 (ROD) was 30. The EC50 in the data set with HIV-2 (ROD) (setting [6]) came out at 1.35 ± 0.63 µM.

As for `Cc1cn([C@H]2C=C[C@@H](COP(=O)(O)OP(=O)(O)OP(=O)(O)OP(=O)(O)O)O2)c(=O)[nH]c1=O` [d4T4P, 2′,3′-didehydro-2′,3′-dideoxythymidine-5′-tetraphosphate], the half-life in data set [1] was greater than 150 h. Besides, the half-life at 1.9 mM in data set [1] (setting [3]) is 534 h; in data set [1] (setting [4]) it was greater than 150 h. Besides, the half-life at 0.86 mM was 0.37 h in data set [2] (setting [5]) and 0.367 h in data set [2] (dephosphorylation, read-out: t1/2 in CEM/0 cell extracts). For the same molecule, the “selectivity index (SI)” value with HIV-2 (ROD) is reported as greater than 3. The EC50 in the data set with HIV-2 (ROD) (setting [6]) was found to be 33.8 ± 21.3 µM.
